Among the data in patent US8642788B2, “Activators of executioner procaspases 3, 6 and 7” (The Regents of the University of California, priority 2008, dated 2014) are EC50 values, retold here.

Common to all, as to type: biochemical
Test [1] has as its target T1, procaspase-7 (Homo sapiens, UniProt P55210).
T1 construct: His6 (C); made in house; host or cells: E. coli BL21(DE3)RP, pET-21b
T1 sequence (P55210 1-303): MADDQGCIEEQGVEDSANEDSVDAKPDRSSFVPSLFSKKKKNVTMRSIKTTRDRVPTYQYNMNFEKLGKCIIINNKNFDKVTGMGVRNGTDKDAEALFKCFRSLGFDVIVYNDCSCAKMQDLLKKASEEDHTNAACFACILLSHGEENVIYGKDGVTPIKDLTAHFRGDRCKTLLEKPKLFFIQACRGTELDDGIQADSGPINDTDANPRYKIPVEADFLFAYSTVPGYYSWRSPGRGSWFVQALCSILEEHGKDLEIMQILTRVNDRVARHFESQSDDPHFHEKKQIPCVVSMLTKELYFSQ
In words: Executioner procaspase-7 activation assay (Ac-DEVD-AFC fluorogenic substrate). The note with it: incubation with compound for 5 h at 37° C.; 100 nM procaspase. Put shortly:
(§1)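 Procaspase at 100 nM incubated with compound (100 nM–100 μM) in 50 mM HEPES pH 7.4, KCl, DTT, 0.01% Triton X-100, 3% DMSO, 37 °C for 5 h; then 25 μM Ac-DEVD-AFC (procaspase-7) or Ac-VEID-AFC (procaspase-6), kinetic fluorescence 30 min (ex 365/em 495); EC50 reported.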

For test [2], the target named is T2, procaspase-3 (Homo sapiens, UniProt P42574).
T2 construct: His6 (C); made in house; host or cells: E. coli BL21(DE3)RP, pET-23b
T2 sequence (P42574 1-277): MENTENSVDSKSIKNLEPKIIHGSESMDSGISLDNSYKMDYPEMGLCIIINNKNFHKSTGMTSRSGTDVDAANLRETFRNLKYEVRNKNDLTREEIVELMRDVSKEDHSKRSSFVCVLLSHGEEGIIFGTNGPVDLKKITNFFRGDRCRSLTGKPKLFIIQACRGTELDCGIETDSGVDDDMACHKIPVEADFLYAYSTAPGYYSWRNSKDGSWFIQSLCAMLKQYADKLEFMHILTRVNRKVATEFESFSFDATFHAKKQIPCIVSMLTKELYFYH
In words: Executioner procaspase-3 activation assay (Ac-DEVD-AFC fluorogenic substrate). The note with it: incubation with compound for 5 h at 37° C.; 100 nM procaspase; read-out: Procaspase Activation 3. In short, it runs like this: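 Procaspase-3 at 100 nM was incubated with activating compounds (100 nM to 100 uM) in 50 mM HEPES pH 7.4, 50 mM KCl, 1 mM DTT and 0.01% Triton-X100, the detergent limiting aggregation artefacts. Protein, substrate and inhibitor were kept as frozen aliquots and thawed just before use.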

The target of test [3] is T3, procaspase-6 (Homo sapiens, UniProt P55212).
T3 sequence (P55212 1-293): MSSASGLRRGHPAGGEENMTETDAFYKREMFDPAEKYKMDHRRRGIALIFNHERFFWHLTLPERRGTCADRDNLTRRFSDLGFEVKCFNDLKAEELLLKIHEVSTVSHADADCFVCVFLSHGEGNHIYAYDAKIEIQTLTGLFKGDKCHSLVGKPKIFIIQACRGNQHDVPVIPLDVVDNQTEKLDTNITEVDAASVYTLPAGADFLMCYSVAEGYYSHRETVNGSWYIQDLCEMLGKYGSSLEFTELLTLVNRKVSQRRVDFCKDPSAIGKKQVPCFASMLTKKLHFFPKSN
Put plainly: Executioner procaspase-6 activation assay (Ac-VEID-AFC fluorogenic substrate). The settings on record: incubation with compound for 5 h at 37° C.; 100 nM procaspase. In short, it runs like this:
as §1

On to `O=C(Nc1cccc(-c2cnc3ccccc3c2)c1)c1cc2cccc(O)c2oc1=O` [compound 83, 8-Hydroxy-2-oxo-2H-chromene-3-carboxylic acid [3-Quinolin-3-yl-phenyl]-amide], for which the EC50 in test [1], in test [2] and in test [3] was greater than 100 µM each time.
On to `CCOc1ccc(-c2cccc(NC(=O)c3cc4cccc(OC)c4oc3=O)c2)cc1` [compound 69, 8-Methoxy-2-oxo-2H-chromene-3-carboxylic acid (4′-ethoxy-biphenyl-3-yl)-amide], for which the EC50 in test [1], in test [2] and in test [3] was greater than 100 µM throughout.
In the case of `COc1ccc2cc(-c3cccc(NC(=O)c4cc5cccc(OC)c5oc4=O)c3)ccc2c1` [compound 78, 8-Methoxy-2-oxo-2H-chromene-3-carboxylic acid [3-(6-methoxy-naphthalen-2-yl)-phenyl]-amide], the EC50 in test [1], in test [2] and in test [3] was greater than 100 µM each time.
Take `COc1cccc2cc(C(=O)Nc3cccc(-c4ccc(Oc5ccccc5)cc4)c3)c(=O)oc12` [compound 60, 8-Methoxy-2-oxo-2H-chromene-3-carboxylic acid (4′-phenoxy-biphenyl-3-yl)-amide]: the EC50 in test [1], in test [2] and in test [3] was greater than 100 µM throughout.
Regarding `COc1ccc(-c2cccc(NC(=O)c3cc4cccc(OC(F)(F)F)c4oc3=O)c2)c(OC)c1` [compound 52, 8-Trifluoromethoxy-2-oxo-2H-chromene-3-carboxylic acid (2′,4′-dimethoxy-biphenyl-3-yl)-amide], the EC50 in test [1], in test [2] and in test [3] was greater than 100 µM each time.
As to `O=C(Nc1cccc(-c2cccnc2)c1)c1cc2cccc(O)c2oc1=O` [compound 17, 8-Hydroxy-2-oxo-2H-chromene-3-carboxylic acid (3-pyridin-3-yl-phenyl)-amide], the EC50 in test [1], in test [2] and in test [3] was greater than 100 µM in each case.
With `COc1cccc2cc(C(=O)Nc3cccc(-c4ccccc4NC(C)=O)c3)c(=O)oc12` [compound 96, 8-Methoxy-2-oxo-2H-chromene-3-carboxylic acid (2′-acetylamino-biphenyl-3-yl)-amide], the EC50 in test [1], in test [2] and in test [3] was greater than 100 µM in each case.
In the case of `N#Cc1ccccc1-c1cccc(NC(=O)c2cc3cccc(OC(F)(F)F)c3oc2=O)c1` [compound 91, 8-Trifluoromethoxy-2-oxo-2H-chromene-3-carboxylic acid (2′-cyano-biphenyl-3-yl)-amide], the EC50 in test [1], in test [2] and in test [3] was greater than 100 µM in each case.
For the compound `COc1cccc2cc(C(=O)Nc3cccc(-c4ccc5ccccc5c4)c3)c(=O)oc12` [compound 81, 8-Methoxy-2-oxo-2H-chromene-3-carboxylic acid (3-Naphthalen-2-yl-phenyl)-amide], the EC50 in test [1], in test [2] and in test [3] was greater than 100 µM in each case.
As for `O=C(Nc1cccc(-c2ccc3c(c2)OCCO3)c1)c1cc2cccc(OC(F)(F)F)c2oc1=O` [compound 88, 8-Trifluoromethoxy-2-oxo-2H-chromene-3-carboxylic acid [3-(2,3-dihydro-benzo[1,4]dioxin-6-yl)-phenyl]-amide], the EC50 in test [1], in test [2] and in test [3] was greater than 100 µM in each case.
With `COc1cccc2cc(C(=O)Nc3cccc(-c4ccnn4C)c3)c(=O)oc12` [compound 152, 8-Methoxy-2-oxo-2H-chromene-3-carboxylic acid [3-(2-methyl-2H-pyrazol-3-yl)-phenyl]-amide], the EC50 in test [1], in test [2] and in test [3] was greater than 100 µM each time.
For the compound `COc1ccc(-c2cccc(NC(=O)c3cc4cccc(OC)c4oc3=O)c2)cc1C` [compound 48, 8-Methoxy-2-oxo-2H-chromene-3-carboxylic acid (4′-Methoxy-3′-methyl-biphenyl-3-yl)-amide], the EC50 in test [1], in test [2] and in test [3] was greater than 100 µM throughout.
Consider `O=C(Nc1cccc(-c2ccccc2OC(F)(F)F)c1)c1cc2cccc(O)c2oc1=O` [compound 71, 8-Hydroxy-2-oxo-2H-chromene-3-carboxylic acid (2′-trifluoromethoxy-biphenyl-3-yl)-amide], for which the EC50 in test [1], in test [2] and in test [3] was greater than 100 µM each time.
Take `COc1ncccc1-c1cccc(NC(=O)c2cc3cccc(O)c3oc2=O)c1` [compound 141, 8-Hydroxy-2-oxo-2H-chromene-3-carboxylic acid [3-(2-methoxy-pyridin-3-yl)-phenyl]-amide]: the EC50 was 10 to 50 µM in test [1], greater than 100 µM in test [2] and greater than 100 µM in test [3].
Turning to `COc1cccc2cc(C(=O)Nc3cccc(-c4c(C)noc4C)c3)c(=O)oc12` [compound 154, 8-Methoxy-2-oxo-2H-chromene-3-carboxylic acid [3-(3,5-dimethyl-isoxazol-4-yl)-phenyl]-amide], the EC50 in test [1], in test [2] and in test [3] was greater than 100 µM each time.
For `COc1ccc(-c2cccc(NC(=O)c3cc4cccc(OC(F)(F)F)c4oc3=O)c2)cc1C` [compound 49, 8-Trifluoromethoxy-2-oxo-2H-chromene-3-carboxylic acid (4′-Methoxy-3′-methyl-biphenyl-3-yl)-amide], the EC50 in test [1], in test [2] and in test [3] was greater than 100 µM each time.
As to `COc1ccc2cc(-c3cccc(NC(=O)c4cc5cccc(OC(F)(F)F)c5oc4=O)c3)ccc2c1` [compound 79, 8-Trifluoromethoxy-2-oxo-2H-chromene-3-carboxylic acid [3-(6-methoxy-naphthalen-2-yl)-phenyl]-amide], the EC50 in test [1], in test [2] and in test [3] was greater than 100 µM throughout.
For `COc1cncc(-c2cccc(NC(=O)c3cc4cccc(OC)c4oc3=O)c2)c1` [compound 132, 8-Methoxy-2-oxo-2H-chromene-3-carboxylic acid [3-(5-methoxy-pyridin-3-yl)-phenyl]-amide], the EC50 in test [1], in test [2] and in test [3] was greater than 100 µM throughout.
As for `O=C(Nc1cccc(N2CCOCC2)c1)c1cc2cccc(O)c2oc1=O` [compound 16, 8-Hydroxy-2-oxo-2H-chromene-3-carboxylic acid (3-morpholin-4-yl-phenyl)-amide], the EC50 in test [1], in test [2] and in test [3] was greater than 100 µM in each case.
With `CCOc1ccc(-c2cccc(NC(=O)c3cc4cccc(O)c4oc3=O)c2)cc1C` [compound 65, 8-Hydroxy-2-oxo-2H-chromene-3-carboxylic acid (4′-ethoxy-3′-methyl-biphenyl-3-yl)-amide], the EC50 in test [1], in test [2] and in test [3] was greater than 100 µM throughout.
Turning to `O=C(Nc1cccc(-c2ccc3c(c2)OCCO3)c1)c1cc2cccc(O)c2oc1=O` [compound 86, 8-Hydroxy-2-oxo-2H-chromene-3-carboxylic acid [3-(2,3-dihydro-benzo[1,4]dioxin-6-yl)-phenyl]-amide], the EC50 in test [1], in test [2] and in test [3] was greater than 100 µM each time.
